Measured values published in patent US6919208B2, “Methods and compositions for enhancing the delivery of a nucleic acid to a cell” (The Children's Hospital of Philadelphia, priority 2000, dated 2005).
Read-outs that look alike come from different tables or passages of the source.

Legend:
A10 cells [1] = assay: p-EGFP-N3 (GFP) plasmid transfection of A10 cells on native type I collagen with cytochalasin D added after lipofection; type: cell-based, Rat; conditions: 1 nanomolar
Protocol: A10 cells were grown on native type I collagen. […] Immediately after lipofection, cytochalasin D at a final concentration of 1 nanomolar was either added to cells for thirty minutes, added to cells for an overnight incubation or not added at all (control). The fluorescence of control cells, cells treated with cytochalasin D for thirty minutes, and cells treated with cytochalasin D for an overnight incubation (FIGS. 6A, 6B and 6C, respectively) was assessed. Bright field micrographs were also taken of the control cells, cells treated with cytochalasin D for thirty minutes, and cells treated with cytochalasin D for an overnight incubation (FIGS. 7A, 7B and 7C, respectively).

A10 cells [2] = system: A10 cells
Protocol: A10 cells were grown on native type I collagen containing 0, 15 and 50 micrograms per milliliter of Tenascin C. The cells were transfected with p-EGFP-N3 (green fluorescent protein) plasmid DNA.

Molecule | transfection (GFP expression), time dependence (A10 cells [1]; added immediately after lipofection) | transfection relative to control cells (A10 cells [1]; overnight exposure) | transfection relative to control cells (A10 cells [1]; thirty minute exposure) | cell morphology (bright field micrograph) (A10 cells [2]) | transfection (GFP expression), dose dependence (A10 cells [2]; 0, 15 and 50 micrograms per milliliter in native type I collagen, 24 h after transfection) | transfection (GFP fluorescence) (A10 cells [2]; 15 micrograms per milliliter in native type I collagen, 24 h after transfection) | transfection (GFP fluorescence) (A10 cells [2]; 50 micrograms per milliliter in native type I collagen, 24 h after transfection)
C=C1[C@@H](C)[C@H]2[C@H](Cc3ccccc3)NC(=O)[C@]23[C@H](OC(C)=O)/C=C/[C@@](C)(O)C(=O)[C@@H](C)C/C=C/[C@H]3[C@@H]1O [cytochalasin D] | time-dependent increase in transfection | notably higher amount of transfection | increased transfection | – | – | – | –
Tenascin C: extracellular matrix protein abundantly expressed within remodeling tissues; added to native type I collagen | – | – | – | normal cell morphology | dose-dependent increase in transfection | increased transfection | highest degree of transfection
